In general, melting point refers to the temperature, or range, at which the solid turns liquid. For orientation: inhibition means the change of the read-out against control, counted positive when it falls.

Molecules are shown by their SMILES.

45 compounds from patent publication US9365556B2, “3,5-diaminopyrazole kinase inhibitors” (Axikin Pharmaceuticals, Inc., priority 2012, dated 2016) can be followed below.

The target of data set [1] is T1, kinase domain protein of RC kinase (Homo sapiens, UniProt Q56UN5).
T1 sequence (Q56UN5 1061-1324 limits assumed): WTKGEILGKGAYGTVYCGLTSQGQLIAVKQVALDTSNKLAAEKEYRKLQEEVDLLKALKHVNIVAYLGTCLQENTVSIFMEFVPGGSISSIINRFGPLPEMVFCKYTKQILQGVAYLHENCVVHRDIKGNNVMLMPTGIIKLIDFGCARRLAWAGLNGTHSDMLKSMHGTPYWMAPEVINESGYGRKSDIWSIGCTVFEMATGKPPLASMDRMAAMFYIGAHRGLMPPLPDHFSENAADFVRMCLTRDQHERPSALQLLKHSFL
Put plainly: Enzymatic assay for kinase inhibitory activity (Crebtide substrate, LANCE read-out). It is filed as biochemical. The settings on record: compound at 1 μM. In short, it runs like this:
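Compound tested at 1 μM final in HEPES/MgCl2/DTT buffer with 50 nM Crebtide and kinase domain at 1 μM ATP; full-length kinase at 3 μM ATP after 45 min preincubation. Reaction 45 min at room temperature, stopped with EDTA, read by LANCE TR-FRET (665/615 nm). Activity binned as % inhibition at 1 μM.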
In general terms: Time-resolved FRET reads energy transfer from a long-lived donor to a nearby acceptor.

With `N#Cc1c(Nc2cccc(Cl)c2)n[nH]c1/N=C/c1ccc(S(F)(F)(F)(F)F)cc1` [Compound A65, 3-((3-chlorophenyl)amino)-5-((4-(pentafluorolthio)benzylidene)amino)-1H-pyrazole-4-carbonitrile], the melting point fell in the range of 200 to 216 °C. Further, in data set [1], the inhibition at 1 µM lay in the range of 5 to 20%.
As to `COc1ccc(/C=N/c2[nH]nc(Nc3ccccc3Cl)c2C(N)=O)cc1` [Compound B120], the melting point lay within 288 to 292 °C. Besides, the inhibition at 1 µM in data set [1] was ≥ 50%.
The compound `N#Cc1c(Nc2cccc(Cl)c2)n[nH]c1/N=C/c1ccc(Cl)cc1Cl` [Compound A4] yielded a melting point of 277 to 281 °C. In addition, the inhibition at 1 µM in data set [1] was ≤ 5%.
`COc1ccc(/C=N/c2[nH]nc(Nc3ccc(OC)cc3)c2C#N)cc1` [Compound A43] showed a melting point of 246 to 250 °C. The inhibition at 1 µM in data set [1] is ≤ 5%.
For `COc1ccccc1/C=N/c1[nH]nc(Nc2cccc(Cl)c2)c1C#N` [Compound A23], the melting point lay within 239 to 241 °C. Also, the inhibition at 1 µM in data set [1] is 20 to 50%.
`COc1ccc(Nc2n[nH]c(/N=C/c3ccc([N+](=O)[O-])cc3)c2C#N)cc1` [Compound A46] displayed a melting point of 242 to 248 °C. Further, the inhibition at 1 µM in data set [1] is ≤ 5%.
`N#Cc1c(Nc2cccc(Cl)c2)n[nH]c1/N=C/c1cc[nH]c1` [Compound A106] had a melting point of 240 to 248 °C. Moreover, the inhibition at 1 µM in data set [1] is ≤ 5%.
Compound `NC(=O)c1c(Nc2ccc(Cl)cc2)n[nH]c1/N=C/c1ccc[nH]1` [Compound B20] displayed a melting point of 273 to 277 °C. Also, in data set [1], the inhibition at 1 µM lay in the range of 20 to 50%.
`COc1ccc(Nc2n[nH]c(/N=C/c3ccc(O)cc3)c2C#N)cc1` [Compound A54] registered a melting point of 193 to 197 °C. For the same compound, in data set [1], the inhibition at 1 µM lay in the range of 5 to 20%.
With `COc1cccc(/C=N/c2[nH]nc(Nc3ccc(Cl)cc3)c2C(N)=O)c1` [Compound B33], the melting point was 279 to 283 °C. Besides, in data set [1], the inhibition at 1 µM is ≤ 5%.
The like results for `N#Cc1c(Nc2cccc(Cl)c2)n[nH]c1/N=C/c1cc(F)cc2c1OCOC2` [Compound A29, 3-((3-chlorophenyl)amino)-5-(((6-fluoro-4H-benzo[d][1,3]dioxin-8-yl)methylene)amino)-1H-pyrazole-4-carbonitrile] were, in that order, 248 to 251 °C and 5 to 20%.
As for `NC(=O)c1c(Nc2cccc(Cl)c2)n[nH]c1/N=C/c1ccc(O)cc1` [Compound B5], the melting point was in the range of 261 to 263 °C. In data set [1], the inhibition at 1 µM was ≥ 50%.
`N#Cc1ccc(/C=N/c2[nH]nc(Nc3cccc(Cl)c3)c2C#N)cc1` [Compound A102] showed a melting point of 266 to 274 °C. For the same compound, in data set [1], the inhibition at 1 µM lay within 5 to 20%.
Compound `N#Cc1c(Nc2cccc(Cl)c2)n[nH]c1/N=C/c1cccn1S(=O)(=O)c1ccccc1` [Compound A64] showed a melting point of 217 to 225 °C. In data set [1], the inhibition at 1 µM is 20 to 50%.
The like results for `COc1cc(/C=N/c2[nH]nc(Nc3ccccc3)c2C#N)ccc1O` [Compound A21, 5-((4-hydroxy-3-methoxybenzylidene)amino)-3-(phenylamino)-1H-pyrazole-4-carbonitrile] were, in that order, 208 to 214 °C and 5 to 20%.
The compound `NC(=O)c1c(Nc2cccc(Cl)c2)n[nH]c1/N=C/c1c[nH]cn1` [Compound B19] registered a melting point of 265 to 267 °C. Also, the inhibition at 1 µM in data set [1] was 20 to 50%.
`NC(=O)c1c(Nc2ccc(Cl)cc2)n[nH]c1/N=C/c1ccc(O)cc1O` [Compound B36] gave a melting point of 243 to 246 °C. Moreover, the inhibition at 1 µM in data set [1] was ≥ 50%.
The compound `N#Cc1c(Nc2cccc(Cl)c2)n[nH]c1/N=C/c1ccc(Cl)cc1` [Compound A12] gave a melting point of 283 to 286 °C. Besides, in data set [1], the inhibition at 1 µM fell in the range of 20 to 50%.
In turn, `COc1ccccc1/C=N/c1[nH]nc(Nc2ccc(Cl)cc2)c1C#N` [Compound A38] displayed a melting point of 262 to 265 °C. Moreover, the inhibition at 1 µM in data set [1] was ≤ 5%.
For the compound `COc1ccc(Nc2n[nH]c(/N=C/c3ccc(O)c([N+](=O)[O-])c3)c2C#N)cc1` [Compound A42], the melting point lay within 274 to 275 °C. Moreover, in data set [1], the inhibition at 1 µM was ≤ 5%.
Take `N#Cc1c(Nc2cccc(Cl)c2)n[nH]c1/N=C/c1ccc(OC(F)F)c(O)c1` [Compound A82]: the melting point is 164 to 176 °C. Further, in data set [1], the inhibition at 1 µM is ≤ 5%.
For `COc1ccc(C=Nc2[nH]nc(Nc3cccc(Cl)c3)c2C(N)=O)cc1` [Compound B3, 3-((3-chlorophenyl)amino)-5-((4-methoxybenzylidene)amino)-1H-pyrazole-4-carboxamide] the same measures were 295 to 297 °C and 5 to 20%.
Regarding `NC(=O)c1c(Nc2ccccc2Cl)n[nH]c1/N=C/c1ccc(O)cc1` [Compound B117], the melting point fell in the range of 254 to 258 °C. The inhibition at 1 µM in data set [1] is ≥ 50%.
`N#Cc1c(Nc2cccc(Cl)c2)n[nH]c1/N=C/c1ccc(Oc2ccc(C(F)(F)F)cn2)cc1` [Compound A112] registered a melting point of 268 to 270 °C. The “Activity (inhibition of the RC kinase activity)” value in data set [1] is listed as “C (no greater than 20% but at least 5% inhibition of the RC kinase activity at 1 μM)”.
On to `NC(=O)c1c(Nc2ccccc2Cl)n[nH]c1/N=C/c1ccc(O)c([N+](=O)[O-])c1` [Compound B113], for which the melting point was in the range of 301 to 304 °C. For the same compound, the inhibition at 1 µM in data set [1] is 5 to 20%.
`N#Cc1c(Nc2cccc(Cl)c2)n[nH]c1/N=C/c1ccc2snnc2c1` [Compound A90] had a melting point of 276 to 281 °C. The inhibition at 1 µM in data set [1] is ≤ 5%.
Take `N#Cc1c(Nc2cccc(Cl)c2)n[nH]c1/N=C/c1cccc(Oc2ncccn2)c1` [Compound A76]: the melting point was in the range of 234 to 239 °C. In data set [1], the inhibition at 1 µM was 5 to 20%.
`N#Cc1c(Nc2ccccc2)n[nH]c1/N=C/c1ccc(O)c([N+](=O)[O-])c1` [Compound A10] displayed a melting point of 284 to 286 °C. Further, the inhibition at 1 µM in data set [1] lay within 5 to 20%.
As for `N#Cc1c(Nc2cccc(Cl)c2)n[nH]c1/N=C/c1ccc(-c2ccccn2)cc1` [Compound A84], the melting point is 326 to 329 °C. Besides, the inhibition at 1 µM in data set [1] was ≤ 5%.
On to `N#Cc1c(Nc2cccc(Cl)c2)n[nH]c1/N=C/c1ccccc1-c1cccs1` [Compound A81], for which the melting point fell in the range of 75 to 80 °C. In data set [1], the inhibition at 1 µM lay in the range of 5 to 20%.
For `Cc1ccc(/C=N/c2[nH]nc(Nc3cccc(Cl)c3)c2C#N)c(O)c1` [Compound A101] the same measures were 293 to 296 °C and ≤ 5%.
The compound `NC(=O)c1c(Nc2cccc(Cl)c2)n[nH]c1/N=C/c1ccccc1O` [Compound B54] registered a melting point of 284 to 286 °C. Moreover, the inhibition at 1 µM in data set [1] fell in the range of 5 to 20%.
The compound `NC(=O)c1c(Nc2cccc(Cl)c2)n[nH]c1/N=C/c1ccc(O)cc1O` [Compound B30] returned a melting point of 220 to 225 °C. The inhibition at 1 µM in data set [1] was ≥ 50%.
The like results for `NC(=O)c1c(Nc2ccccc2)n[nH]c1/N=C/c1ccc(Cl)cc1` [Compound B12] were, in that order, 291 to 293 °C and 5 to 20%.
With `COc1ccc(/C=N/c2[nH]nc(Nc3cccc(Cl)c3)c2C(N)=O)cc1` [Compound B122], the melting point lay within 295 to 298 °C. Moreover, the inhibition at 1 µM in data set [1] was 20 to 50%.
In turn, `N#Cc1c(Nc2cccc(Cl)c2)n[nH]c1/N=C/c1ccccc1` [Compound A11] gave a melting point of 260 to 264 °C. The inhibition at 1 µM in data set [1] lay within 5 to 20%.
Compound `NC(=O)c1c(Nc2ccc(Cl)cc2)n[nH]c1/N=C/c1cccc2ccccc12` [Compound B25] registered a melting point of 290 to 296 °C. Further, the inhibition at 1 µM in data set [1] was ≤ 5%.
Regarding `N#Cc1c(Nc2cccc(Cl)c2)n[nH]c1/N=C/c1ccc(O)cc1` [Compound A20], the melting point was 242 to 245 °C. Besides, the inhibition at 1 µM in data set [1] was ≤ 5%.
Take `N#Cc1c(Nc2cccc(Cl)c2)n[nH]c1/N=C/c1ccc(OCCO)cc1` [Compound A88]: the melting point fell in the range of 229 to 232 °C. Besides, the inhibition at 1 µM in data set [1] was in the range of 5 to 20%.
On to `N#Cc1c(Nc2ccccc2)n[nH]c1/N=C/c1cc(F)cc2c1OCOC2` [Compound A30], for which the melting point fell in the range of 247 to 251 °C. Moreover, the inhibition at 1 µM in data set [1] lay within 5 to 20%.
`N#Cc1c(Nc2cccc(Cl)c2)n[nH]c1/N=C/c1ccc(C(F)(F)F)cc1` [Compound A15, 3-((3-chlorophenyl)amino)-5-((4-(trifluoromethyl)benzylidene)amino)-1H-pyrazole-4-carbonitrile] had a melting point of 279 to 282 °C. The inhibition at 1 µM in data set [1] fell in the range of 5 to 20%.
In turn, `NC(=O)c1c(Nc2ccc(Cl)cc2)n[nH]c1/N=C/c1ccc(Cl)cc1` [Compound B24] gave a melting point of 307 to 309 °C. In data set [1], the inhibition at 1 µM is ≤ 5%.
For `COc1ccc(/C=N/c2[nH]nc(Nc3ccc(Cl)cc3)c2C(N)=O)cc1` [Compound B23], the melting point was in the range of 313 to 315 °C. Besides, the inhibition at 1 µM in data set [1] is ≤ 5%.
Compound `COc1ccc(/C=N/c2[nH]nc(Nc3ccccc3Cl)c2C(N)=O)c(O)c1` [Compound B119] showed a melting point of 267 to 270 °C. Further, the inhibition at 1 µM in data set [1] is 5 to 20%.
`N#Cc1c(Nc2ccc(Cl)cc2)n[nH]c1/N=C/c1ccc(O)cc1` [Compound A32] came in with a melting point of 286 to 288 °C. In addition, in data set [1], the inhibition at 1 µM lay within 5 to 20%.
